compound: CC(O)(CS(=O)(=O)c1ccc(F)cc1)C(=O)Nc1ccc(C#N)c(C(F)(F)F)c1 [Bicalutamide] + CC(=O)c1c(C)c2cnc(Nc3ccc(N4CCNCC4)cn3)nc2n(C2CCCC2)c1=O [Palbociclib] (partner 0.5 µM); test: relative viability (nuclei count vs DMSO), 5 days (fraction); higher = more cells survive; conditions: first compound 0.08 µM
How it was run: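 Nuclei were stained with Hoechst during a one-step fixation (final 0.05% Triton X-100, 1% formaldehyde, 1 ug/ml Hoechst) carried out 5 days after dosing, then counted on 4× images. The cells, lung cancer lines in 1536-well plates, had been dosed by pin tool the day after seeding with one drug alone or a fixed anchor-drug dose plus five library-drug doses (not always all listed) in √10 steps. Relative viability is the nuclei count in treated wells divided by that in vehicle wells, and each value is the median of duplicate plates.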

Cell Line | relative viability
NCI-H522 | 0.949
NCI-H838 | 0.225
NCI-H1650 | 0.435
NCI-H2009 | 0.241
NCI-H1993 | 0.642
PC-14 | 0.583
LCLC-103H | 0.467
NCI-H2228 | 0.797
EMC-BAC-2 | 0.532
NCI-H2087 | 0.222
HCC-366 | 0.368
NCI-H1666 | 0.652
NCI-H647 | 0.415
LK-2 | 0.665
NCI-H2126 | 0.339
NCI-H2342 | 0.526
SK-MES-1 | 0.319
H3255 | 0.35
COR-L23 | 0.359
COR-L 105 | 0.405
LOU-NH91 | 0.449
ChaGo-K-1 | 0.933
NCI-H2170 | 0.378
NCI-H3122 | 0.193

Cell Line | relative viability
HOP-62 | 0.47
HCC-44 | 0.953
SW 900 | 0.602
LU99A | 0.386
BEN | 0.442
HARA | 0.246
HCC-78 | 0.464
NCI-H441 | 0.33
LCLC-97TM1 | 0.227
NCI-H2023 | 0.406
A-427 | 0.547
NCI-H460 | 0.171
NCI-H727 | 0.647
NCI-H1734 | 0.332
NCI-H520 | 0.188
NCI-H2405 | 0.555
SW 1573 | 0.418
NCI-H1395 | 0.645
201T | 0.379
NCI-H1915 | 0.534
HCC-827 | 0.499
LXF-289 | 0.596
NCI-H2347 | 0.473
NCI-H650 | 0.372

Cell Line | relative viability
CAL-12T | 0.505
NCI-H1651 | 0.526
EPLC-272H | 0.328
NCI-H23 | 0.529
NCI-H1792 | 0.653
NCI-H1355 | 0.4
NCI-H322M | 0.515
NCI-H1437 | 0.305
NCI-H1755 | 0.472
NCI-H2085 | 0.494
HCC-15 | 0.727
NCI-H1793 | 0.265
PC-3 [JPC-3] | 0.556
EKVX | 0.381
LC-2-ad | 0.475
NCI-H1944 | 0.335
NCI-H1975 | 0.627
SK-LU-1 | 0.403
ABC-1 | 0.698
NCI-H358 | 0.147
NCI-H661 | 0.418
RERF-LC-KJ | 1.08

same assay, conditions: first compound 0.253 µM

Cell Line | relative viability
NCI-H522 | 1.11
NCI-H838 | 0.195
NCI-H1650 | 0.314
NCI-H2009 | 0.246
NCI-H1993 | 0.513
PC-14 | 0.466
LCLC-103H | 0.478
NCI-H2228 | 0.775
EMC-BAC-2 | 0.502
NCI-H2087 | 0.272
HCC-366 | 0.383
NCI-H1666 | 0.603
NCI-H647 | 0.381
LK-2 | 0.511
NCI-H2126 | 0.339
NCI-H2342 | 0.519
SK-MES-1 | 0.3
H3255 | 0.324
COR-L23 | 0.293
COR-L 105 | 0.407
LOU-NH91 | 0.548
ChaGo-K-1 | 0.849
NCI-H2170 | 0.34

Cell Line | relative viability
NCI-H3122 | 0.183
HOP-62 | 0.464
HCC-44 | 1.03
SW 900 | 0.596
LU99A | 0.36
BEN | 0.438
HARA | 0.262
HCC-78 | 0.513
NCI-H441 | 0.142
LCLC-97TM1 | 0.216
NCI-H2023 | 0.373
A-427 | 0.54
NCI-H460 | 0.185
NCI-H727 | 0.645
NCI-H1734 | 0.283
NCI-H520 | 0.185
NCI-H2405 | 0.506
SW 1573 | 0.451
NCI-H1395 | 0.624
201T | 0.351
NCI-H1915 | 0.463
HCC-827 | 0.389
LXF-289 | 0.543

Cell Line | relative viability
NCI-H2347 | 0.468
NCI-H650 | 0.345
CAL-12T | 0.352
NCI-H1651 | 0.515
EPLC-272H | 0.313
NCI-H23 | 0.503
NCI-H1792 | 0.569
NCI-H1355 | 0.382
NCI-H322M | 0.482
NCI-H1437 | 0.283
NCI-H1755 | 0.42
NCI-H2085 | 0.465
HCC-15 | 0.501
PC-3 [JPC-3] | 0.576
EKVX | 0.392
LC-2-ad | 0.473
NCI-H1944 | 0.299
NCI-H1975 | 0.532
SK-LU-1 | 0.452
ABC-1 | 0.474
NCI-H358 | 0.141
NCI-H661 | 0.409
RERF-LC-KJ | 1.05

same assay, conditions: first compound 0.8 µM

Cell Line | relative viability
NCI-H522 | 1.11
NCI-H838 | 0.256
NCI-H1650 | 0.464
NCI-H2009 | 0.252
NCI-H1993 | 0.793
PC-14 | 0.677
LCLC-103H | 0.53
NCI-H2228 | 0.745

Source: the supplement of paper PMC10307832
